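Interpolation was linear, between the two tested concentrations surrounding the appropriate level; five concentrations were tested over 48 hours in 96-well plates. GI50 = concentration required for 50% inhibition of growth. The concentration for full growth arrest is given as TGI.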
How the values were obtained:
Test in all cases: NCI anticancer screen, dose series, 48 h
[1] = system: CAKI-1 renal
[2] = system: K-562 leukemia
[3] = system: DLD-1 colon
[4] = system: A549 NSCLC
[5] = system: MOLT-4 leukemia
[6] = system: DMS 273 small cell lung
[7] = system: OVCAR-5 ovarian
[8] = system: T-47D breast
[9] = system: CCRF-CEM leukemia
[10] = system: PC-3 prostate

Structure (SMILES) | GI50 [1] [µM] | TGI [1] [µM] | GI50 [2] [µM] | TGI [2] [µM] | GI50 [3] [µM] | TGI [3] [µM] | GI50 [4] [µM] | TGI [4] [µM] | GI50 [5] [µM] | TGI [5] [µM] | GI50 [6] [µM] | TGI [6] [µM] | GI50 [7] [µM] | TGI [7] [µM] | GI50 [8] [µM] | TGI [8] [µM] | GI50 [9] [µM] | TGI [9] [µM] | GI50 [10] [µM] | TGI [10] [µM]
CCC[CH2][Sn]1([CH2]CCC)[O]C(=O)C(C(C)C)N=Cc2ccccc2[O]1 (centres undefined) | 0.136 | 0.47 | 0.171 | 1.04 | 0.499 | > 100 | 1.59 | 3.14 | 0.236 | 1.04 | 0.73 | 2.04 | 1.61 | 2.98 | – | – | – | – | – | –
CCCCN=C(N)c1ccc(OCCSCCOc2ccc(C(N)=NCCCC)cc2)cc1 | > 100 | > 100 | 2.3 | > 100 | – | – | 4.47 | > 100 | 20.9 | > 100 | – | – | 46.1 | > 100 | 1.83 | 24.8 | 20.7 | > 100 | 4.4 | 98.6
Clc1nc(Cl)c2ncn(Cc3cccc(COc4cccc(OCc5cccc(Cn6cnc7c(Cl)nc(Cl)nc76)c5)c4)c3)c2n1 | > 100 | > 100 | 71.9 | > 100 | – | – | > 100 | > 100 | 4.73 | > 100 | – | – | > 100 | > 100 | 25.8 | > 100 | 5.24 | > 100 | 14.6 | 47
Cc1cccc(NC(=O)C(=O)Cc2nc3ccccc3[nH]c2=O)c1C | – | > 100 | – | > 100 | – | > 100 | – | > 100 | – | – | – | – | – | > 100 | – | – | – | > 100 | – | –
CCN(CC)CCCC(C)Nc1c(C)cnc2cc(Cl)c(C)cc12 (centres undefined) | 10 | 26.6 | 1.26 | 8.36 | – | – | 15.1 | 30 | 0.845 | 8.27 | – | – | 5.56 | 18 | 22.9 | > 61.7 | 8.66 | 34.8 | 9.69 | 26.4
CCOC(=O)Sc1ncnc2nc[nH]c12 | 0.579 | 6.31 | 0.312 | > 100 | – | – | 25.9 | > 100 | 1.58 | 6.57 | – | – | 4.49 | > 100 | 0.799 | > 100 | 0.629 | 13.4 | 4.07 | > 100
Cc1ccc(C(=NN=C(N)N)c2ccc(C)cc2)cc1 | 0.608 | 5.93 | 0.271 | 1.55 | – | – | 0.451 | 7.09 | 0.52 | 4.45 | – | – | 1.85 | 13.8 | 0.869 | 10.9 | 0.559 | 12.2 | 0.457 | 10.5
COc1ccc(C(=O)COc2cccc(/C=C3\COc4ccc5ccccc5c4C3=O)c2)cc1 | 8.24 | 78.3 | 3.63 | 66.7 | – | – | > 100 | > 100 | 2.86 | 18.9 | – | – | 12.9 | > 100 | 3.88 | > 100 | 1.92 | 6.26 | 3.5 | > 100
CC(=O)OC1CC(O)C23COC(O)C1(C)C2CC(O)C1(C)C3C(=O)C(O)C2(C)C(c3ccoc3)CC3OC321 (centres undefined) | 2.97 | > 100 | < 0.01 | – | – | – | 0.0674 | > 100 | < 0.01 | 0.0127 | – | – | > 36 | > 100 | 0.151 | > 100 | < 0.0162 | > 100 | 0.0114 | > 100
CCOC(=O)CN=c1nc(SC)sc2c(C(=O)OCC)nc(Sc3ccccc3)n12 | – | > 100 | – | > 100 | – | > 100 | – | – | – | – | – | – | – | > 100 | – | – | – | > 100 | – | –
CC(=O)OC1Oc2ccccc2-c2oc(=O)c(-c3cc4ccc(N(C)C)cc4oc3=O)cc21 (centres undefined) | 14.9 | > 100 | 2.98 | > 100 | – | – | 12.5 | 36.9 | 2.53 | 18.1 | – | – | 13.2 | 30.8 | 4.34 | 30.1 | 2.89 | 24.2 | 10.5 | 32.6
CC1CN1CC(O)C(O)CN1CC1C (centres undefined) | 0.229 | 4.54 | 2.02 | > 100 | – | – | 2.08 | 33 | 0.234 | 3.15 | – | – | 13.4 | > 85.1 | 2.87 | > 71.4 | 1.41 | > 100 | 12.5 | > 78.4
C=CCCCCCCCCC(=O)NS(=O)(=O)c1ccccc1 | – | > 100 | – | > 100 | – | > 100 | – | > 100 | – | > 100 | – | > 100 | – | > 100 | – | – | – | – | – | –
O=C(O)CP(=S)(S)c1ccccc1 (centres undefined) | – | > 100 | – | > 100 | – | > 100 | – | > 100 | – | > 100 | – | > 100 | – | – | – | – | – | > 100 | – | –
CC(C)c1ccc(C(=O)Nc2sc3c(c2C(N)=O)CCC(=O)C3)cc1 | 0.334 | 1.55 | 0.207 | 3.83 | – | – | 1.96 | 13.2 | 0.461 | 3.17 | – | – | 1.16 | 3.08 | 0.312 | 2.1 | 0.215 | 4.27 | 0.242 | 1.31
Cc1noc(C)c1CCCOC1COc2ccccc2OCCOCCOc2ccccc2OC1 | – | > 100 | – | > 100 | – | > 100 | – | > 100 | – | – | – | > 100 | – | > 100 | – | – | – | – | – | –
O=c1cccccc1NCCCNc1cccccc1=O | – | > 100 | – | > 100 | – | – | – | > 100 | – | > 100 | – | > 100 | – | > 100 | – | – | – | > 100 | – | –
CCc1[nH]c(=O)nc(N)c1-c1ccc(N2CCCCC2)c([N+](=O)[O-])c1 | – | > 100 | – | > 100 | – | – | – | > 100 | – | > 100 | – | – | – | > 100 | – | > 100 | – | > 100 | – | > 100

Reference: PubChem BioAssay (NCI)
